Counter-ions that a name gives are not always drawn.
test system: Long-Evans male rats; experiment: IP administration of compounds in fasted Long-Evans male rats, 2 hr food intake; format: in vivo; conditions: Rattus norvegicus; male Long Evans rats fasted 18-20 hr; 30 mg/kg (ip) in 2% tween; food given after 30 min, weighed 2 hr later; vs vehicle; read-out: inhibition of feeding (2 hr food intake)
Method: Protocol for IP Administration of Compounds in Fasted Long-Evans Male Rats
Male Long Evans rats (85-100 g)were obtained from Harlan (Indianapolis, Ind.) and were given at least a one week acclimation period to Ambients animal care facilities. Animals were individually housed and were provided ad libitum food and water. For testing, rats were fasted for 18-20 hr (overnight) prior to the start of the experiment. On the test day, test compounds or vehicle was administered via the intraperitoneal (i.p.) route of administration. Test compounds were suspended in a 2% tween solution; the 2% tween solution was used as the vehicle treatment (control group). Group sizes for each treatment were 6-8 animals. After 30 min, premeasured food was placed into the cages. Two hours later, the food was weighed again. The difference between 2 hr weight and the premeasured weight was taken as 2 hr food intake.

**Q.** With `Cc1nc(N2CCCCC2)c2[nH]c(-c3cccc(Cl)c3)cc2n1` [Example 70e, 6-(3-Chlorophenyl)-2-methyl-4-piperidylpyrrolo[3,2-d]pyrimidine Hydrochloride Monohydrate] as the molecule, how does the inhibition in vivo at 30 mg/kg read?
**A.** Its inhibition in vivo at 30 mg/kg is no less than 10%.

**Q.** With `Cc1nc(N2CCCCC2)c2[nH]c(-c3ccccc3)c(C)c2n1` [Example 90, 2,7-Dimethyl-6-phenyl-4-piperidylpyrrolo[3,2-d]pyrimidine Hydrochloride Monohydrate] as the molecule, how does the inhibition in vivo at 30 mg/kg read?
**A.** Its inhibition in vivo at 30 mg/kg is no less than 10%.

**Q.** For `Cc1nc(N2CCCCC2)c2[nH]c(-c3ccccc3F)cc2n1` [Example 102, 6-(2-Fluorophenyl)-2-methyl-4-piperidylpyrrolo[3,2-d]pyrimidine Hydrochloride Monohydrate], which inhibition in vivo at 30 mg/kg is on record?
**A.** The inhibition in vivo at 30 mg/kg was no less than 10%.

**Q.** `Cc1nc(N2CCCCC2)c2[nH]c(C)cc2n1` [Example 104, 2,6-Dimethyl-4-piperidylpyrrolo[3,2-d]pyrimidine Hydrochloride Hydrate] was tested. Which inhibition in vivo at 30 mg/kg did it give?
**A.** The inhibition in vivo at 30 mg/kg was no less than 10%.

**Q.** `COc1ccc(-c2cc3nc(C)nc(N4CCCCC4)c3[nH]2)cc1OC` [Example 126, 1,2-Dimethoxy-4-(2-methyl-4-piperidylpyrrolo[4,5-d]pyrimidin-6-yl)benzene Hydrochloride Hydrate] was tested. Which inhibition in vivo at 30 mg/kg did it give?
**A.** The inhibition in vivo at 30 mg/kg was no less than 10%.

**Q.** For `Cc1nc(N2CCCCC2)c2[nH]c(-c3ccc4c(c3)Cc3ccccc3-4)cc2n1` [Example 127, 6-Fluoren-2-yl-2-methyl-4-piperidylpyrrolo[3,2-d]pyrimidine Hydrochloride Hydrate], which inhibition in vivo at 30 mg/kg is on record?
**A.** The inhibition in vivo at 30 mg/kg was no less than 10%.

**Q.** For `Cc1nc(N2CCCCC2)c2[nH]c(-c3ccc(F)cc3)c(C)c2n1` [Example 134, 6-(4-Fluorophenyl)-2,7-dimethyl-4-piperidylpyrrolo[3,2-d]pyrimidine Hydrochloride Hydrate], which inhibition in vivo at 30 mg/kg is on record?
**A.** Its inhibition in vivo at 30 mg/kg is no less than 10%.

**Q.** For `Cc1nc(N2CCCCC2)c2[nH]c(-c3ccc(O)cc3)c(C)c2n1` [Example 137, 4-[2,7-Dimethyl-4-piperidylpyrrolo[4,5-d]pyrimidin-6-yl]phenol Hydrochloride Hydrate], which inhibition in vivo at 30 mg/kg is on record?
**A.** The inhibition in vivo at 30 mg/kg was no less than 10%.

**Q.** With `Cc1nc(N2CCOCC2)c2[nH]c(-c3ccc(F)c(F)c3)cc2n1` [Example 141, 4-[6-(3,4-Difluorophenyl)-2-methylpyrrolo[2,3-e]pyrimidin-4-yl]morpholine Hydrochloride] as the molecule, how does the inhibition in vivo at 30 mg/kg read?
**A.** Its inhibition in vivo at 30 mg/kg is no less than 10%.

**Q.** With `Cc1nc(N2CCCCC2)c2[nH]c(-c3ccc(S(C)(=O)=O)cc3)cc2n1` [Example 142, 1-[2-Methyl-4-piperidylpyrrolo[4,5-d]pyrimidin-6-yl]-4-(methylsulfonyl)benzene Hydrochloride Monohydrate] as the molecule, how does the inhibition in vivo at 30 mg/kg read?
**A.** Its inhibition in vivo at 30 mg/kg is no less than 10%.

**Q.** With `CCCCc1cc2nc(C)nc(N3CCCCC3)c2[nH]1` [Example 148, 6-Butyl-2-methyl-4-piperidylpyrrolo[3,2-d]pyrimidine Hydrochloride] as the molecule, how does the inhibition in vivo at 30 mg/kg read?
**A.** Its inhibition in vivo at 30 mg/kg is no less than 10%.

**Q.** With `CC(=O)c1ccc(-c2cc3nc(C)nc(N4CCCCC4)c3[nH]2)cc1` [Example 150, 1-[4-(2-Methyl-4-piperidylpyrrolo[4,5-d]pyrimidin-6-yl)phenyl]ethan-1-one Hydrochloride Hydrate] as the molecule, how does the inhibition in vivo at 30 mg/kg read?
**A.** The inhibition in vivo at 30 mg/kg was no less than 10%.

**Q.** For `Cc1nc(N2CCCCC2)c2[nH]c(-c3ccc4ccccc4c3)cc2n1` [Example 160, 2-Methyl-6-(2-naphthyl)-4-piperidylpyrrolo[3,2-d]pyrimidine Hydrochloride Hydrate], which inhibition in vivo at 30 mg/kg is on record?
**A.** The inhibition in vivo at 30 mg/kg was no less than 10%.

**Q.** For `Cc1nc(N2CCCCC2)c2[nH]c(CCc3ccccc3)cc2n1` [Example 168, 2-Methyl-6-(2-phenylethyl)-4-piperidylpyrrolo[3,2-d]pyrimidine Hydrochloride Hydrate], which inhibition in vivo at 30 mg/kg is on record?
**A.** The inhibition in vivo at 30 mg/kg was no less than 10%.

**Q.** `Cc1nc(N2CC=CC2)c2[nH]c(-c3ccc(Cl)c(Cl)c3)cc2n1` [Example 200d, 6-(3,4-Dichlorophenyl)-2-methyl-4-(3-pyrrolinyl)pyrrolo[3,2-d]pyrimidine Hydrochloride Hydrate] was tested. Which inhibition in vivo at 30 mg/kg did it give?
**A.** Its inhibition in vivo at 30 mg/kg is no less than 10%.

**Q.** Which inhibition in vivo at 30 mg/kg does the source give for `CCc1nc(N2CCc3ccccc3C2)c2[nH]c(-c3ccccc3)cc2n1` [Example 202, 2-Ethyl-6-phenyl-4-(2-1,2,3,4-tetrahydroisoquinolyl)pyrrolo[3,2-d]pyrimidine Hydrochloride Monohydrate] here?
**A.** The inhibition in vivo at 30 mg/kg was no less than 10%.
